US6933108B2 (priority 1999, dated 2005)
“Also recorded” adds a separate entry of the source.

Tests used:
[1] = system: Filoviruses, including the Marburg and Ebola viruses; details: cited from earlier work
FR-α = FR-α (Homo sapiens, UniProt P15328); details: cited from earlier work
MBG pseudotype virus = assay type: cell-based, Marburg virus
EBO-Z pseudotype virus = assay type: cell-based, Ebola-Zaire virus
Ampho luciferase virus = assay type: cell-based, amphotropic murine leukemia virus

Chain of FR-α (P15328 25-234): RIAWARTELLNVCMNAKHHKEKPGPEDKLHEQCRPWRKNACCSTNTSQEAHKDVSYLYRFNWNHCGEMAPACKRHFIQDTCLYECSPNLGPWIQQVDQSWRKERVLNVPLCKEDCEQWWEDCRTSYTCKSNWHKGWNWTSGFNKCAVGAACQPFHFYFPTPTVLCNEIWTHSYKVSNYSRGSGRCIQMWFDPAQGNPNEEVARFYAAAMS

## NC(=O)c1ncn([C@@H]2O[C@H](CO)[C@@H](O)[C@H]2O)n1 [ribavirin]
[1]
  in vitro effect against filoviruses: no in vitro effect

## CN1c2c(nc(N)[nH]c2=O)NCC1CNc1ccc(C(=O)N[C@@H](CCC(=O)O)C(=O)O)cc1 (stereo partly drawn) [5-methyltetrahydrofolic acid]
FR-α
  binding affinity to FR-α: high affinity

## Nc1nc2ncc(CNc3ccc(C(=O)N[C@@H](CCC(=O)O)C(=O)O)cc3)nc2c(=O)[nH]1 [folic acid]
MBG pseudotype virus
  entry by MBG luciferase virus: specifically inhibited
  reduction of MBG virus entry: ~80%
EBO-Z pseudotype virus
  entry by EBO-Z virus: inhibited significantly; also recorded: specifically inhibited
Ampho luciferase virus
  entry by Ampho luciferase pseudotype: very slight alteration; also recorded: did not significantly decrease; also recorded: not Ampho
